How the values were obtained:
[1] = test system: Friedreich's ataxia lymphoblast cell line GM15850; experiment: Cytoprotection (trypan blue exclusion assay) of DEM-treated FRDA lymphocytes; assay type: cell-based; conditions: for viability at 5 µM / viability at 1 µM / viability at 2.5 µM / viability at 0.1 µM / viability at 0.5 µM: Homo sapiens, GM15850, DEM alone 18 ± 10% viability, read-out: Cytoprotection (cell viability, % of untreated control)
Description: Cell viability was determined by trypan blue exclusion assay in Friedreich's ataxia lymphoblast cell line GM15850 (Coriell Institute, New Jersey). This technique was used to assess the cytoprotective effects of the tested compounds in cultured cells treated with DEM to induce cell death by GSH depletion. The viability of DEM-treated FRDA cells was determined by their ability to exclude the dye trypan blue. Viable cells exclude trypan blue, whereas non-viable cells take up the dye and stain blue. Briefly, FRDA lymphocytes were grown in RPMI 1640 medium (Gibco) supplemented with 15% fetal calf serum, 2 mM glutamine (HyClone) and 1% penicillin-streptomycin mix (Cellgro). Cells were seeded at a density of 5×10^5 cells/mL and treated with different concentrations of the indicated compounds. Cells were incubated at 37° C. in a humidified atmosphere of 5% CO2 in air for 17 h. After pre-incubation, the cells were treated with 5 mM DEM. Cell viability was determined by staining cells with 0.4% trypan blue using a hemacytometer. At least 500 cells were counted in each experimental group. At the time of assay, <20% of DEM treated cells were viable (trypan blue negative), whereas in non DEM-treated control, >90% cells were viable. Cell viability was expressed as the percentage of control. Data are expressed as means±S.E.M. (n=3).
Cell viability was determined by trypan blue exclusion assay in Friedreich's ataxia lymphoblast cell line GM15850 (Coriell Institute). This technique was used to assess the cytoprotective effects of the compounds in cultured cells treated with diethyl maleate (DEM) to induce cell death by glutathione (GSH) depletion. The viability of DEM-treated FRDA cells was determined by their ability to exclude the dye trypan blue. Viable cells exclude trypan blue, whereas non-viable cells take up the dye and stain blue. […] Benzoquinone analogue 9 afforded greater cyoprotection to FRDA lymphocytes at 5 μM concentration than did the tert-butyl ester 6 (74 vs 50%).

[2] = target: bovine heart mitochondrial complex I (Bos taurus, UniProt P03887+P17694+P42026); experiment: Complex I (NADH-Q1 oxidoreductase) inhibition in submitochondrial particles; assay type: biochemical; conditions: submitochondrial particles, 30° C.; for IC50: read-out: Complex I inhibition IC50; for Emax: read-out: Complex I inhibition Imax
Chain of bovine heart mitochondrial complex I (P25708 21-464): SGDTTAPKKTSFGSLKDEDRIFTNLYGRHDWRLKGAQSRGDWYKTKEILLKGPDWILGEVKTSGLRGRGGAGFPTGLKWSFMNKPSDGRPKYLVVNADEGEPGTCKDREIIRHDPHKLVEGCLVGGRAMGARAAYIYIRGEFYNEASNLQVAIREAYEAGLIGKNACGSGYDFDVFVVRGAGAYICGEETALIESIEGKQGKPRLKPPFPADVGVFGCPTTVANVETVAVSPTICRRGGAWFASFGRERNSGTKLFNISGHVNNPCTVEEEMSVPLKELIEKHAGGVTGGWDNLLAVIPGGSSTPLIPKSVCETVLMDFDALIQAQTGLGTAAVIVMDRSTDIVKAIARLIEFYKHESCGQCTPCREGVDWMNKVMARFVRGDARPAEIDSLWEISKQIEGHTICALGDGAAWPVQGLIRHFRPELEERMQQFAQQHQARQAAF
Chain of bovine heart mitochondrial complex I (P42026 38-216): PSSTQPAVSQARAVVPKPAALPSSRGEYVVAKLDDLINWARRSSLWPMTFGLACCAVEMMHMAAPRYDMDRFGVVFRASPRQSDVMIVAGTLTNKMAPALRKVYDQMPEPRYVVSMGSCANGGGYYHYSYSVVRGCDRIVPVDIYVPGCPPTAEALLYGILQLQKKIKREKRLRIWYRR
Chain of bovine heart mitochondrial complex I (P17694 34-463): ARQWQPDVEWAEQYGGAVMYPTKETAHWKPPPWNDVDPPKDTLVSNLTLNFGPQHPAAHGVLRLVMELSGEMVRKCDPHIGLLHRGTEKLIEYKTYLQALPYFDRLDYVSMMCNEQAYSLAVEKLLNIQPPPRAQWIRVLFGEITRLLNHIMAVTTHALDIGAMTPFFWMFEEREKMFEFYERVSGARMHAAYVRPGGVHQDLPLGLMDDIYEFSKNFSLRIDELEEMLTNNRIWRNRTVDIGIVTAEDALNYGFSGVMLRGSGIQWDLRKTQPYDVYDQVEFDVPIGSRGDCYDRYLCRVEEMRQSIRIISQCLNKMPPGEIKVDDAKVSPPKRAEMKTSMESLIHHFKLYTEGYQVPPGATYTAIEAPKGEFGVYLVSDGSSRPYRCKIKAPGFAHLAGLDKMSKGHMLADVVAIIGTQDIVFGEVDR
Chain of bovine heart mitochondrial complex I (P15690 24-727, further chain): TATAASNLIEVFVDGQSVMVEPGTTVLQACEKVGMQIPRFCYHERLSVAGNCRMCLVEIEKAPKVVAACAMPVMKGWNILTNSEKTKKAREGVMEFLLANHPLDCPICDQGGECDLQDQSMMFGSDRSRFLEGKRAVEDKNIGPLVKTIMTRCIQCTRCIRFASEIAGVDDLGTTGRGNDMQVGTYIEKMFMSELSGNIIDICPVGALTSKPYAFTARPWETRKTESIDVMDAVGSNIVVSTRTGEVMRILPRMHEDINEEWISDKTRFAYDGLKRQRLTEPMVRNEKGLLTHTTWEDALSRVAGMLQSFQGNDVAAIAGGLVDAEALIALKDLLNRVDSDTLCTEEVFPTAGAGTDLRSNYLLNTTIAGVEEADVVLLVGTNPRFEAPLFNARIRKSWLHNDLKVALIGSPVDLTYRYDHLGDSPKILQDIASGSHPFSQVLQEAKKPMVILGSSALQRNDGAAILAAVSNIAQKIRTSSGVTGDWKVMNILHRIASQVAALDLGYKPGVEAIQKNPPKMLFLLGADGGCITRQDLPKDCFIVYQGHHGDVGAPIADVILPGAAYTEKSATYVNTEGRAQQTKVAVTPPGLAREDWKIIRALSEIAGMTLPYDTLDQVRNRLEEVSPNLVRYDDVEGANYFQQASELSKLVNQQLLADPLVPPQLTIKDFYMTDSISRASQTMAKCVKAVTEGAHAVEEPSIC
Chain of bovine heart mitochondrial complex I (P03887 whole entry): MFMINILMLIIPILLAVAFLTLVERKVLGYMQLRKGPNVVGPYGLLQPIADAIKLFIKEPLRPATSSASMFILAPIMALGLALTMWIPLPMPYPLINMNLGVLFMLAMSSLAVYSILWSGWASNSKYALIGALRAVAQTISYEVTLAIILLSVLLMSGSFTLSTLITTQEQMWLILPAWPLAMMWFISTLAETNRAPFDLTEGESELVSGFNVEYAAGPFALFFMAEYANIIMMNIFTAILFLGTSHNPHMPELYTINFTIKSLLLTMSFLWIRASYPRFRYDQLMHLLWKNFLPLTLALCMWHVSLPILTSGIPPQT
Chain of bovine heart mitochondrial complex I (P42028 37-212, further chain): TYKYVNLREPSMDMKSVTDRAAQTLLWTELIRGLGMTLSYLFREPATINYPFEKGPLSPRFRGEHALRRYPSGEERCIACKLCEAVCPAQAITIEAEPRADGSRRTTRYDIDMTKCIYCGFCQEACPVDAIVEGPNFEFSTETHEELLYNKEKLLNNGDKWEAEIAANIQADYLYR

FRDA lymphocytes = experiment: Suppression of lipid peroxidation (C11-BODIPY581/591, FACS) in FRDA lymphocytes treated with diethyl maleate; assay type: cell-based; conditions: Lymphocyte, DEM, read-out: Scavenging activity (%), suppression of lipid peroxidation
Text: Several methods for assaying lipid peroxidation in vitro have been developed (Kuypers et al. (1987) Biochim Biophys Acta. 25, 266-274; Pap et al. (1999) FEBS Lett. 453, 278-282; Drummen et al. (2002) Free RadicBiol Med. 33, 473-490). Almost all of these methods are based on inhibition of free radical-induced oxidation reactions. A widely used fluorescence assay for lipid peroxidation uses lipid soluble cis-parinaric acid as a probe. cis-parinaric acid loses its fluorescence (λexc/em: 320/432 nm) upon interaction with peroxyl radicals and retains its fluorescence in the presence of radical quenchers. cis-parinaric acid is, however, air sensitive, photolabile and absorbs light in the UV region of the spectrum (at ˜320 nm). […] In practical terms, the results obtained using cis-parinaric as a probe for lipid peroxidation are confounded due to the overlapping of the compounds emission spectra with the cis-parinaric emission spectrum. C11-BODIPY^581/591 Oxidation to Measure Lipid Peroxidation To overcome the problem of spectral overlap using cis-parinaric acid, a fluorescence assay for lipid peroxidation using a lipophilic probe belonging to the BODIPY class of fluorescent dyes was used C11-BODIPY^581/591 (4,4-difluoro-5(4-phenyl-1,3-butadienyl)-4-bora-3a, 4a-diaza-s-indacene-3-propionic acid) fluorescent shifts from red to green upon oxidation. C11-BODIPY^581/591 (Molecular Probes, Eugene, Oreg., USA) stock solution concentrations were determined by measuring the absorption of C11-BODIPY^581/591 at 582 nm using a molar extinction coefficient of 140,000 mol^−1 cm^−1 (R. P. Haugland, (1999) Handbook of Fluorescent Probes and Research Chemicals, Molecular Probes, Inc., Eugene, Oreg.). The lipid peroxidation inducer 2,2′-Azobis (2-amidino-propane dihydrochloride) (AAPH) and the antioxidant compound α-tocopherol (α-TOH) were obtained from Sigma (St. Louis, Mo., USA). Phospholipid bilayers were prepared from 1-stearoyl-2-oleoyl-phosphatidylcholine (SOPC) and 1,2-dilinoleoyl-phosphatidylcholine (DLPC) and were purchased from Avanti® polar lipids, Inc., (Alabaster, Ala., USA). Preparation of Liposomes Phosphotidylcholine (PC) liposomes were prepared as described before (Guey-Shuang et al. (1982) Lipids. 17, 403-413). Briefly, DLPC (25 mg) were dissolved in chloroform and the solvent was removed by nitrogen evaporation (˜2 hours) to give a thin film of PC in a round bottom flask. The lipid film was hydrated with 50 mL of 10 mM Tris-HCl (pH 7.4), 100 mM KCl, shaken and sonicated for 15 seconds. The liposomes obtained were filtered several times through […] membrane filter. Measurement of C11-BODIPY^581/591 Oxidation C11-BODIPY^581/591 was incorporated into liposomes and oxidized by peroxyl radicals derived from the decomposition of AAPH in the presence and absence of compounds. Liposomes (1 mg/mL), suspended in 10 mM Tris-HCl (pH 7.4), 100 mM KCl, were transferred to a quartz 1 mL cuvette and placed in a Varian Cary Eclipse fluorometer (Varian, Cary, N.C.) equipped with a thermostatted cuvette holder at 40° C. Liposomes were pre-incubated for 10 min with 200 nM C11-BODIPY^581/591 to allow their incorporation into the lipid phase of the liposomes. After the addition of AAPH (10 mM) the decay of the red fluorescence was followed at λ exc=570 nm, λ em=600 nm. Relative fluorescence units were normalized to 100% intensity. Results obtained were verified by repeating experiments N=3 independent experiments. Measurement of C11-BODIPY^581/591 Oxidation in Cell Culture A quantitative FACS analysis of lipid peroxidation of FRDA lymphocytes, which had been treated with diethyl maleate following incubation in the presence and absence of the test compounds, was measured as described (Khdour et al. (2011) Pharmaceut. Res. 28, 2896-2909). Briefly, FRDA lymphocytes (5×10^5 cell/mL) were treated with the test compounds at final concentrations of 5 and 10 μM and incubated at 37° C. for 16 h in a humidified atmosphere containing 5% CO2 in air. […]

[3] = test system: NADH oxidase (complexes I, III and IV); experiment: NADH oxidase activity (complexes I, III and IV) in submitochondrial particles; assay type: biochemical, bovine

Work on `CCCCCCCCCCCCCC1=C(O)C(=O)C=C(NCCCC(=O)OCCCC)C1=O` [Compound 14, Butyl 4-(4-hydroxy-3,6-dioxo-5-tridecylcyclohexa-1,4-dienylamino)butanoate] yielded a viability at 5 µM ([1]; 5 μM) of 58 ± 9%, an IC50 [2] of 11000 ± 600 nM and an Emax [2] of 58 ± 4%.
In the case of `CCCCCCCCCCCCCC1=C(O)C(=O)C=C(N(C)CCCC(=O)OC(C)(C)C)C1=O` [Compound 29, tert-butyl 4-((4-hydroxy-3,6-dioxo-5-tridecylcyclohexa-1,4-dienyl)(methyl)amino)-butanoate], the viability at 1 µM [1] is reported as 21% and the viability at 2.5 µM [1] is reported as 74 ± 4%.
`C=CCCCCCCCCCc1c(OC)c(OC)cc(OC)c1OC` [Compound 34, 1,2,4,5-tetramethoxy-3-(undec-10-enyl)benzene] gave a melting point of 33 to 34 °C.
For `CCCCCCCCCCCCCC1=C(OC)C(=O)C=C(NCCCC(=O)O)C1=O` [Compound 9, 4-(4-methoxy-3,6-dioxo-5-tridecylcyclohexa-1,4-dienylamino)butanoic Acid], the inhibition at 5 µM (FRDA lymphocytes) was 41 ± 7.2%, the inhibition at 10 µM (FRDA lymphocytes) was 51 ± 5% and the viability at 5 µM ([1]; 5 μM) was 74%. For the same compound, the IC50 [2] was 1900 ± 100 nM and the Emax [2] was 98 ± 2.8%.
`C=CCCCCCCCCCC1=C(O)C(=O)C=C(NCCCCC=C)C1=O` [Compound 37, 5-(hex-5-enylamino)-2-hydroxy-3-(undec-10-enyl)cyclohexa-2,5-diene-1,4-dione] gave a melting point of 77 to 78 °C.
With `COC1=C2CCCCCCCCCC=CCCCCNC(=CC1=O)C2=O` [Compound 39] the melting point was 82 to 84 °C.
In the case of `CCCCCCCCCCCCCC1=C(OC)C(=O)C=C(N(C)CCCC(=O)OCCCCCC)C1=O` [Compound 24, Hexyl 4-((4-methoxy-3,6-dioxo-5-tridecylcyclohexa-1,4-dienyl)(methyl)amino)butanoate], the IC50 [2] is reported as 1900 ± 100 nM, the Emax [2] is reported as 90 ± 0.7% and the “NADH oxidase activity (Complex I, III, IV) %” value ([3]; 1 μM) is reported as 81 ± 1.5%. The “NADH oxidase activity (Complex I, III, IV) %” value ([3]; 5 μM) was 33 ± 0.9% and the “NADH oxidase activity (Complex I, III, IV) %” value ([3]; 10 μM) was 17 ± 0.4%.
Compound `C=CCCCCCCCCCC1=C(O)C(=O)C=C(OC)C1=O` has a melting point of 89 to 90 °C.
Work on `CCCCCCCCCCCCCC1=C(O)C(=O)C=C(NCCCC(=O)OCCCCCC)C1=O` [Compound 17, Hexyl 4-(4-hydroxy-3,6-dioxo-5-tridecylcyclohexa-1,4-dienylamino)butanoate] yielded an inhibition at 5 µM (FRDA lymphocytes) of 9 ± 2.5%, an inhibition at 10 µM (FRDA lymphocytes) of 40 ± 9.9% and a viability at 5 µM ([1]; 5 μM) of 49 ± 9.9%. For the same compound, the IC50 [2] was 2000 ± 400 nM and the Emax [2] was 51 ± 1.4%.
Work on `CCCCCCCCCCCCCC1=C(O)C(=O)C=C(NCCCC(=O)OCc2ccccc2)C1=O` [Compound 11, Benzyl 4-(4-hydroxy-3,6-dioxo-5-tridecylcyclohexa-1,4-dienylamino)butanoate] yielded a viability at 5 µM ([1]; 5 μM) of 48 ± 5.8%, an IC50 [2] of 1700 ± 100 nM and an Emax [2] of 70 ± 0.31%.
With `CCCCCCCCCCCCCC1=C(O)C(=O)C=C(N(C)CCCC(=O)OCCCCCC)C1=O` [Compound 23, hexyl 4-((4-hydroxy-3,6-dioxo-5-tridecylcyclohexa-1,4-dienyl)(methyl)amino)-butanoate] the IC50 [2] was 3400 ± 100 nM, the Emax [2] was 78 ± 0.8% and the “NADH oxidase activity (Complex I, III, IV) %” value ([3]; 1 μM) was 82 ± 2.4%. For the same compound, the “NADH oxidase activity (Complex I, III, IV) %” value ([3]; 5 μM) was 36 ± 1.0% and the “NADH oxidase activity (Complex I, III, IV) %” value ([3]; 10 μM) was 18 ± 0.5%.
`CCCCCCCCCCCCCC1=C(OC)C(=O)C=C(N(C)C)C1=O` [Compound 26, 5-(dimethylamino)-2-methoxy-3-tridecylcyclohexa-2,5-diene-1,4-dione] gave a viability at 0.1 µM [1] of 53 ± 9%, a viability at 0.5 µM [1] of 66 ± 3% and a viability at 2.5 µM [1] of 90 ± 3%. The IC50 [2] was 1600 ± 30 nM, the Emax [2] was 90 ± 1.1% and the “NADH oxidase activity (Complex I, III, IV) %” value ([3]; 1 μM) was 70 ± 2.1%. The “NADH oxidase activity (Complex I, III, IV) %” value ([3]; 5 μM) was 34 ± 0.6% and the “NADH oxidase activity (Complex I, III, IV) %” value ([3]; 10 μM) was 15 ± 0.4%.
For `CCCCCCCCCCCCCC1=C(OC)C(=O)C=C(N(C)CCCC(=O)OC(C)(C)C)C1=O` [Compound 30, tert-butyl 4-((4-methoxy-3,6-dioxo-5-tridecylcyclohexa-1,4-dienyl)(methyl)amino)-butanoate], the inhibition at 5 µM (FRDA lymphocytes) was 97%, the inhibition at 10 µM (FRDA lymphocytes) was 100% and the viability at 1 µM [1] was 64 ± 15%. For the same compound, the viability at 2.5 µM [1] was 82 ± 5%.
Compound `CCCCCCCCCCCCCC1=C(O)C(=O)C=C(N(C)C)C1=O` [Compound 25, 5-(dimethylamino)-2-hydroxy-3-tridecylcyclohexa-2,5-diene-1,4-dione] has a viability at 0.1 µM [1] of 21 ± 3%, a viability at 0.5 µM [1] of 18 ± 4% and a viability at 2.5 µM [1] of 24 ± 3%. The IC50 [2] was 1500 ± 100 nM, the Emax [2] was 90 ± 3.4% and the “NADH oxidase activity (Complex I, III, IV) %” value ([3]; 1 μM) was 18 ± 0.5%. The “NADH oxidase activity (Complex I, III, IV) %” value ([3]; 5 μM) was 6.6 ± 0.1% and the “NADH oxidase activity (Complex I, III, IV) %” value ([3]; 10 μM) was 5.0 ± 0.1%.
With `CCCCCCCCCCCCCC1=C(O)C(=O)C=C(NCCCC(=O)O)C1=O` [Compound 8, 4-(4-hydroxy-3,6-dioxo-5-tridecylcyclohexa-1,4-dienylamino)butanoic Acid] the inhibition at 5 µM (FRDA lymphocytes) was 8 ± 6.6%, the inhibition at 10 µM (FRDA lymphocytes) was 24% and the “Cytoprotection (in words)” value ([1]; 5 μM, compared with 6 and 9) was “least protection”. It also gave a viability at 5 µM ([1]; 5 μM) of 36 ± 7.3%, an IC50 [2] of 2000 ± 100 nM and an Emax [2] of 84 ± 1.3%. The “NADH oxidase activity (Complex I, III, IV) %” value ([3]; 1 μM) was 77 ± 4.0% and the “NADH oxidase activity (Complex I, III, IV) %” value ([3]; 5 μM) was 62 ± 3.0%.
Work on `CCCCCCCCCCCCCC1=C(OC)C(=O)C=C(NCCCC(=O)OCc2ccccc2)C1=O` [Compound 12, benzyl 4-(4-methoxy-3,6-dioxo-5-tridecylcyclohexa-1,4-dienylamino)butanoate] yielded a viability at 5 µM ([1]; 5 μM) of 71 ± 6.4%, an IC50 [2] of 34000 ± 2500 nM and an Emax [2] of at least 53%. The “NADH oxidase activity (Complex I, III, IV) %” value ([3]; 1 μM) was 67 ± 6.0% and the “NADH oxidase activity (Complex I, III, IV) %” value ([3]; 5 μM) was 48 ± 3.0%.
